{
  "source": "patent US20040082021A1",
  "about": "“Method for assaying compounds or agents for ability to decrease the activity of microsomal prostaglandin E synthase or hematopoietic prostaglandin D synthase” (Aventis Pharmaceuticals Inc., priority 2002, published 2004)",
  "target": "T1, human hPGDS (Homo sapiens, UniProt O60760)",
  "T1 construct": "made in house; host or cells: E. coli FL21 (DE3) as printed, pT7-7 vector",
  "T1 sequence (O60760 whole entry)": "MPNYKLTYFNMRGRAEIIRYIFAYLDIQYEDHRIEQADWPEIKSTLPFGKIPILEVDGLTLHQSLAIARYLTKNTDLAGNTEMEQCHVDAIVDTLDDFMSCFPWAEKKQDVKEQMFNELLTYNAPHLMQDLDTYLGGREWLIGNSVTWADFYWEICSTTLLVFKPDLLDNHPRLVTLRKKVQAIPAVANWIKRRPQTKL",
  "experiment": "Fluorescence polarization assay of hematopoietic prostaglandin D synthase (hPGDS)",
  "type": "biochemical",
  "conditions": "conversion of PGH2 to PGD2, FIG. 8 histogram",
  "procedure": "A fluorescence polarization (FP) assay to measure hPGDS activity has also been developed (FIGS. 3 and 4). The assay is configured based on the fluorescence polarization principle. hPGDS was mixed with PGH2, glutathione, and the compound or agent being evaluated. After a short period of time (about 30 seconds), a stop solution containing FeCl2 (20 mM) was added to quench any remaining PGH2, which would undergo spontaneous conversion to a mixture of PGD2 and PGE2, and thus interfere with the quantification of the enzymatic conversion of PGH2 to PGD2 (FIG. 3). A detection solution containing a fluorescence labeled (Texas Red) tracer (PGD2) and anti-PGD2 antibody was then added in order to generate the specific signal that is inversely proportional to the production of PGD2 (FIG. 4). The PGD2 generated from the enzymatic reaction competed specifically for the antibody and released the fluorescence labeled tracer. For reasons discussed above, a decrease or inhibition of PGD2 synthase activity results in increased fluorescence polarization (FP) value. […]\nA control mixture was prepared that was identical to the mixture containing the enzyme, wherein the control mixture was treated in a manner identical the mixture containing the enzyme, i.e., same incubation durations, etc. […] The fluorescence polarization measurement was made while the measuring instrument is in FP mode. […]",
  "data": [
    {"smiles": "c1ccc(C(OC2CCN(CCCc3nn[nH]n3)CC2)c2ccccc2)cc1", "note": "[HQL 79]", "values": [
      {"measurement": "decrease in activity of hPGDS detected by FP method", "result": "decreases the activity of hPGDS"}
    ]}
  ]
}
